IC50 data for 27 compounds are collected here from patent US9861635B2, “Macrocycles as kinase inhibitors” (Merck Patent GmbH, priority 2013, dated 2018).

pIC50: −log10 of the molar value.

The target in the first experiment is T1, GCN2 (Homo sapiens, UniProt Q9P2K8). Nature of the experiment: Cellular assay of GCN2 activity (phospho-eIF2alpha immunocytochemistry in U2OS cells, tryptophanol). The conditions noted are these: 2 h compound, 600 μM tryptophanol 30 min. Also on record: endogenous in cells; host or cells: U2OS. The class given is cell-based. The method, then: Cellular Assay for the Determination of Compound Activities
T1 sequence (Q9P2K8 whole entry): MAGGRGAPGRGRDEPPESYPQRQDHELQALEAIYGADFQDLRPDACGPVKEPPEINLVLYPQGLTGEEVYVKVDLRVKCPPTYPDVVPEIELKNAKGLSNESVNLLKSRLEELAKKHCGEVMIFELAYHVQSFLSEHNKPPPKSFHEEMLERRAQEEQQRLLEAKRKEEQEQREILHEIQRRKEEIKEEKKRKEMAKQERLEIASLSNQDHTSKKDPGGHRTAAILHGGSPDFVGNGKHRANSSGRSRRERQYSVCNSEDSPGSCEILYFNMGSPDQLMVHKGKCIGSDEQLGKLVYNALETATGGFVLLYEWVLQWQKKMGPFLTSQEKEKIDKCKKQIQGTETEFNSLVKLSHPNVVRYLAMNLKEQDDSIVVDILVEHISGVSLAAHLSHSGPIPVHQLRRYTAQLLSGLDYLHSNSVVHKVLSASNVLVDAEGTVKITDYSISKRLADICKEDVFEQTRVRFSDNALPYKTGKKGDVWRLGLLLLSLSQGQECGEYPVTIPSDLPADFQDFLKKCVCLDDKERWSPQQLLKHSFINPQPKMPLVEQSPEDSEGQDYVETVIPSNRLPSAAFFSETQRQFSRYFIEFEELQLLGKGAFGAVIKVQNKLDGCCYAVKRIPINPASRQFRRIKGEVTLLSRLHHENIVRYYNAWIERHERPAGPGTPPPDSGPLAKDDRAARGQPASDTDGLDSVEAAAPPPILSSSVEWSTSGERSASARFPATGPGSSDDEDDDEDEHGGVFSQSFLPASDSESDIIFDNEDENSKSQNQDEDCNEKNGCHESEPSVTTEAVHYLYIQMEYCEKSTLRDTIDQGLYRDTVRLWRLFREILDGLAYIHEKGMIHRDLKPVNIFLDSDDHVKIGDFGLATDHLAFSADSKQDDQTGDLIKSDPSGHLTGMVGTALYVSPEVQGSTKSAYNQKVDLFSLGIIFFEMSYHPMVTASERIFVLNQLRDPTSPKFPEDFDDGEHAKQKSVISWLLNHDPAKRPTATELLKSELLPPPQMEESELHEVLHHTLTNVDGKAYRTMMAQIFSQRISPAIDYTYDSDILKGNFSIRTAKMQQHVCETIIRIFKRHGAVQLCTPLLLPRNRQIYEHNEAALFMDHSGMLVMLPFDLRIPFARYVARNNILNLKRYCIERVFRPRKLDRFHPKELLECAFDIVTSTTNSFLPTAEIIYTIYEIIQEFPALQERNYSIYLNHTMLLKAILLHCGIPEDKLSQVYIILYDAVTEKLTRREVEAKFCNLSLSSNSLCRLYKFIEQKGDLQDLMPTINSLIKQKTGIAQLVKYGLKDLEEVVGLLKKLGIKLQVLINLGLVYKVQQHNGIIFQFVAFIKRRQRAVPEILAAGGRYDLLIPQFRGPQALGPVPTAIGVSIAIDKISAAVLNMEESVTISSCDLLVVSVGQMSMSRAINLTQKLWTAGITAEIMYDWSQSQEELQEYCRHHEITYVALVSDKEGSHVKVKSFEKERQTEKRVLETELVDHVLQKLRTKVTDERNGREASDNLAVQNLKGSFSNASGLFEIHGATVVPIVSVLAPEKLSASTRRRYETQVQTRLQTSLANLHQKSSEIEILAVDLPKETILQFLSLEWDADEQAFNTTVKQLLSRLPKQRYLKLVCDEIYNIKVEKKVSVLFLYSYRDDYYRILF
Human U2OS cells (2000 cells/well) are seeded into 384-well plates and incubated for 20 hours.
The next day, the cells are treated with the test compounds and incubated for 2 hours. Then, tryptophanol, at a final concentration of 600 μM, is added to the cells and those are incubated for 30 minutes.
The analysis of cellular GCN2 activities is done by immunocytochemistry. Briefly, cells are fixated on the well surfaces by formaldehyde and permeabilized with Triton X-100. The primary antibody (anti-phospho-eIF2alpha (Ser51, Cell Signalling Technology, #3398) is incubated on the treated cells for 20 hours, followed by a 60 minutes incubation of the secondary antibody (anti-rabbit-IgG-Alexa 488; Molecular Probes #11008).
The analysis and quantification of phosphorylated GCN2 is done by scanning the plates in the Acumen Explorer system (TTPLabtech). The obtained data are normalised against the untreated control wells (DMSO only) and expressed as % effect values. The determination of IC50 values is done by using the Graph Pad Prism software.
Consider `O=C1CCCCOc2ccc(cc2)-n2nnc3cnc(nc32)Nc2cnn(c2)CCCN1` [Compound A26], for which the pIC50 (commonly the IC50 on a negative log10 scale, so that one unit is a factor of ten) was more than 6.00.

For the next experiment, the target named is T1, GCN2. Nature of the experiment: GCN2 enzyme assay (TR-FRET Lanthascreen, GFP-eIF2alpha substrate). Type of experiment: biochemical. The conditions noted are these: 10 μM ATP, 80 nM GFP-eIF2a, 30 nM GCN2. From the text: GCN2: Assay Principle & Conditions
This assay can quantificate the activity of the serin kinase GCN2 (general control non-derepressible-2).
This kinase is involved in the stress metabolism of cells. It is activated upon starvation (amino acid depletion). Its natural substrate is eIF2a (eukaryotic initiation factor 2 alpha subunit), a translation factor, which gets activated (phosphorylated) by GCN2 in case of an amino acid bottleneck in the cells. This in turn leads to a halt of the protein synthesis. Inhibition of GCN2 results in stopping this mechanism: The cell can not stop protein production upon “starvation” stress.
The assay is run in two steps: the enzymatic reaction and the detection step. In the first step GCN2 is incubated with 10 μM ATP and 80 nM of the GFP-labelled substrate eIF2alpha at room temperature.
The enzymatic reaction is stopped by addition of EDTA. The amount of phosphorylated eIF2alpha is determined by TR-FRET (Lanthascreen): A complex is formed consisting of antibody and GFP labelled phospho-eIF2a, which allows a FRET upon excitation at 340 nm.
The GCN2-activity is directly proportional to the ratio of fluorescence units at the emission wavelength 520 nm (phosphopeptide-sensitive wavelength=emission of GFP) to the units at 495 nm (reference wavelength=emission of Terbium-chelate).
Final Concentrations in the Enzymatic Reaction
A general note: TR-FRET usually uses a lanthanide donor and a delayed reading to cut background.
The compound `O=C1CCOc2ccc(cc2)-n2nnc3cnc(nc32)Nc2cnn(c2)CCCN1` [Compound A1, 2,7-diaza-11-oxa-3H-1(5,3)-[1,2,3]triazolo[4,5-d]pyrimidina-1H-3(4,1)-pyrazola-12(1,4)-benzenacyclododecaphane-8-one] gave a pIC50 of more than 6.00.

In the case of `O=C1CCCOc2ccc(cc2)-n2nnc3cnc(nc32)Nc2cnn(c2)CCCN1` [Compound A2], the pIC50 was more than 6.00. On the same count and under the same terms, the figure for `O=C1COc2ccc(cc2)-n2nnc3cnc(nc32)Nc2cnn(c2)CCCN1` [Compound A3] is 5.30 to 6.00. Same read-out and setting: with `O=C1CCCOc2ccc(cc2)-n2nnc3cnc(nc32)Nc2ccc(cc2)OCCCCN1` [Compound A4] the figure was more than 6.00; with `O=C1CCOc2ccc(cc2)-n2nnc3cnc(nc32)Nc2ccc(cc2)CCCN1` [Compound A5], 5.00 to 5.30. The same measure, in the same setting: the figure for `O=C1CCCOc2ccc(cc2)-n2nnc3cnc(nc32)Nc2ccc(cc2)CCCN1` [Compound A6] is 5.30 to 6.00; for `O=C1CCCCOc2ccc(cc2)Nc2ncc3nnn(c3n2)-c2cnn(c2)CCCN1` [Compound A7] it is more than 6.00. Regarding `O=C1CCn2cc(cn2)-n2nnc3cnc(nc32)Nc2ccc(cc2)OCCCN1` [Compound A8], the negative logarithm of the IC50 (pIC50) was 5.00 to 5.30.

Consider `O=C1CCn2cc(cn2)-n2nnc3cnc(nc32)Nc2ccc(cc2)OCCCCN1` [Compound A9], for which the negative-log IC50 (pIC50) was 5.00 to 5.30. On the same count and under the same terms, the figure for `c1nn2cc1Nc1ncc3nnn(c3n1)-c1ccc(cc1)OCCNCCC2` [Compound A10] is more than 6.00; for `O=C1CCn2cc(cn2)-n2nnc3cnc(nc32)Nc2cccc(c2)OCCCN1` [Compound A11] it is more than 6.00; for `CN1CCCCn2cc(cn2)Nc2ncc3nnn(c3n2)-c2ccc(cc2)OCCCCC1=O` [Compound A12] it is more than 6.00. The same measure, in the same setting: the figure for `O=C1CCCOc2ccc(cc2)-n2nnc3cnc(nc32)Nc2cccc(c2)OCCCN1` [Compound A13] is more than 6.00; for `O=C1CCCOc2ccc(cc2)-n2cnc3cnc(nc32)Nc2cnn(c2)CCCN1` [Compound A14] it is more than 6.00. Same read-out and setting: with `O=C1CCCOc2ccc(cc2)-n2cnc3cnc(nc32)Nc2ccc(cc2)OCCCN1` [Compound A15] the figure was more than 6.00. Regarding `O=C1CCCCOc2ccc(cc2)-n2cnc3cnc(nc32)Nc2ccc(cc2)OCCCN1` [Compound A16], the pIC50 was more than 6.00. `O=C1CCCCOc2ccc(cc2)-n2nnc3cnc(nc32)Nc2cnn(c2)CCC2CCN1CC2` [Compound A17]: the pIC50 is 5.30 to 6.00. `O=C1CCCOc2ccc(cc2)-n2cnc3cnc(nc32)Nc2ccc(cc2)CCCN1` [Compound A18] showed a negative-log IC50 (pIC50) of more than 6.00. The same measure, in the same setting: with `O=C1CCCCOc2ccc(cc2)-n2cnc3cnc(nc32)Nc2ccc(cc2)CCCN1` [Compound A19] the figure was more than 6.00; with `O=C1CCCOc2ccc(cc2)-n2cnc3cnc(nc32)Nc2cnn(c2)CCCO1` [Compound A20], 5.30 to 6.00; with `O=C1CCCOc2ccc(cc2)-n2nnc3cnc(nc32)Nc2cnn(c2)CCN2CCN(CCCN1)CC2` [Compound A21], more than 6.00. On the same count and under the same terms, with `O=C1CCCn2cc(cn2)Nc2ncc3nnn(c3n2)-c2ccc(cc2)CN1` [Compound A22] the figure was 5.30 to 6.00; with `O=C1CCCn2cc(cn2)Nc2ncc3nnn(c3n2)-c2cnn(c2)CCCN1` [Compound A23], more than 6.00. On the same count and under the same terms, with `O=C1CCCn2cc(cn2)Nc2ncc3nnn(c3n2)-c2ccc(cc2)OCCCN1` [Compound A24] the figure was more than 6.00. With `c1cc2ccc1CCNCCCCn1cc(cn1)Nc1ncc3nnn-2c3n1` [Compound A25], the pIC50 was more than 6.00. Still for that read-out and setting: the figure for `O=C1CCCCOc2ccc(cc2)-n2nnc3cnc(nc32)Nc2cnn(c2)CCCN1` [Compound A26] is more than 6.00; for `O=C1CCCc2ccc(cc2)Nc2ncc3ncn(c3n2)-c2ccc(cc2)OCCCCN1` [Compound A27] it is 5.30 to 6.00.
